For assay [1], the target named is T1, HDAC8 (Homo sapiens, UniProt Q9BY41).
T1 sequence (Q9BY41 1-377): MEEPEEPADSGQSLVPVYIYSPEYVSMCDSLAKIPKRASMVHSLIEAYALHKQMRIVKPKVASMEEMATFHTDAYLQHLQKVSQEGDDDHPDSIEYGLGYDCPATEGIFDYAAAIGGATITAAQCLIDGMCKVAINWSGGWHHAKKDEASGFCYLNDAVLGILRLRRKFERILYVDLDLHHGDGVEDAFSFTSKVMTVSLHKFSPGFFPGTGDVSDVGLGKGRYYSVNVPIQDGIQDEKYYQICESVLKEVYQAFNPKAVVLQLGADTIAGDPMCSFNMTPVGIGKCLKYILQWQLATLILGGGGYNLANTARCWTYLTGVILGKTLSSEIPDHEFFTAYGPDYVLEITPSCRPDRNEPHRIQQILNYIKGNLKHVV
The experiment in a line: HDAC-Glo I/II assay, HDAC8. The assay is classed as biochemical. On the set-up: purchased BPS Bioscience 50008. Particulars: recombinant human HDAC8, HDAC-Glo; read-out: pIC50 HDAC8 Glo (converted).

The next assay has as its target T2, HDAC3/NcoR2 complex (Homo sapiens, UniProt O15379).
T2 construct: purchased BPS Bioscience 50003
The experiment in a line: HDAC-Glo I/II assay, HDAC3/NcoR2 complex. Type of assay: biochemical. As to conditions: recombinant human HDAC3/NcoR2 complex, read-out: pIC50 HDAC3 Glo (converted).

A further assay addresses T3, TwinStrep-GST-HDAC10 (Homo sapiens, UniProt Q969S8).
T3 construct: made in house; host or cells: Sf21 insect cells (baculovirus, pFastBac1)
T3 sequence (Q969S8 1-669): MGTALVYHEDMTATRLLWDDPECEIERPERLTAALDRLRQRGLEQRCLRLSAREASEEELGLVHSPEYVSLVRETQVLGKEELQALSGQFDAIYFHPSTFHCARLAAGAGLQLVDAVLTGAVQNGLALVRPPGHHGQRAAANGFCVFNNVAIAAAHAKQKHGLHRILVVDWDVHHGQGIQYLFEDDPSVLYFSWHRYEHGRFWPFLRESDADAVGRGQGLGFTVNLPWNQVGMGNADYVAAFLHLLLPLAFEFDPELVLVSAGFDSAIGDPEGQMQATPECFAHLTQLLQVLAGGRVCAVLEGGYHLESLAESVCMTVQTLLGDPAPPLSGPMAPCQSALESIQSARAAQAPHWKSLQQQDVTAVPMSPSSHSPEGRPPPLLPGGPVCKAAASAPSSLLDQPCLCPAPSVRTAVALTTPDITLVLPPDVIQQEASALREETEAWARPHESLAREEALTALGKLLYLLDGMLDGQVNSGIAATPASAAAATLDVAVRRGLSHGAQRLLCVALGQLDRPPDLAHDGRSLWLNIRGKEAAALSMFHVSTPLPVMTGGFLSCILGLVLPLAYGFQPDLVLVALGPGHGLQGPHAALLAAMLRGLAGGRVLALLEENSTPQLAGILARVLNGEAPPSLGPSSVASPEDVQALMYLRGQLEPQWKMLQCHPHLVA
The experiment in a line: HDAC10 TR-FRET assay (Tubastatin-AF647-Tracer displacement). Type of assay: binding. As to conditions: TR-FRET, 60 min at rt; read-out: pIC50 HDAC10 FRET (converted).

Assay [2] addresses T4, HDAC6 (Homo sapiens, UniProt Q9UBN7).
T4 construct: purchased BPS Bioscience 50006
T4 sequence (Q9UBN7 1-1215): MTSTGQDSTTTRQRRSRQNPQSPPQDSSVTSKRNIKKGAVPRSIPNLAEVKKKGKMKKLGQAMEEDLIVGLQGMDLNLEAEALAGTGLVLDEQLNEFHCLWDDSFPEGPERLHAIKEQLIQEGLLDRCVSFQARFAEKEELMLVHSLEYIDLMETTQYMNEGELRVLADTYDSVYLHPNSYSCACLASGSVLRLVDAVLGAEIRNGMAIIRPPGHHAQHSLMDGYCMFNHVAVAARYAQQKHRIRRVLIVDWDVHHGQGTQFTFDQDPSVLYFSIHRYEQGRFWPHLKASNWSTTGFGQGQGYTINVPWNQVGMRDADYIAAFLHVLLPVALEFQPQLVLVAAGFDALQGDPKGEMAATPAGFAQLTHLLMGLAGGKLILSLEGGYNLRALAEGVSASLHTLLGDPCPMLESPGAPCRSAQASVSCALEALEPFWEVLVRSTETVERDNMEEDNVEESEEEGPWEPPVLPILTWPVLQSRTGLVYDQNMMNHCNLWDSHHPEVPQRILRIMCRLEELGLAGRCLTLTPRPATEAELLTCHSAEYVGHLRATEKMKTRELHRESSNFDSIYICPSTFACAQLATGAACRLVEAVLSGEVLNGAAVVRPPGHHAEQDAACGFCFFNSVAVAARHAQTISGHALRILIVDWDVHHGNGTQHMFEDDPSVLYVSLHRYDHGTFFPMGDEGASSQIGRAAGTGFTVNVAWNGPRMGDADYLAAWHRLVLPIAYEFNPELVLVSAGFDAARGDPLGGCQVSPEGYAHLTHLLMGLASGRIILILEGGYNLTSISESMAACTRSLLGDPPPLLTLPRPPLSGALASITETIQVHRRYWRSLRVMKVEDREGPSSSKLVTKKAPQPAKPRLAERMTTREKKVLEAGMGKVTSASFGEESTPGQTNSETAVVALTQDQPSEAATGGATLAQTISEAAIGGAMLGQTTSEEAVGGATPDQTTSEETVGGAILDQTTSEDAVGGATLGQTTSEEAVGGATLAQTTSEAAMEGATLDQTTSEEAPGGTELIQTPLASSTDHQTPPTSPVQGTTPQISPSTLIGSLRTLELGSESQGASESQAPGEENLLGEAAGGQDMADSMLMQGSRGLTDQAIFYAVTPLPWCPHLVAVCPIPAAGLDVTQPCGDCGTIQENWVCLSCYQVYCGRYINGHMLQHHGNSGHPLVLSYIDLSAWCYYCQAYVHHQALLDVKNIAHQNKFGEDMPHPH
The experiment in a line: HDAC-Glo I/II assay, HDAC6. Type of assay: biochemical. Particulars: recombinant human HDAC6, HDAC-Glo; read-out: pIC50 HDAC6 Glo (converted).

For assay [3], the target named is T5, HDAC10-nanoluciferase fusion in HeLa cells (Homo sapiens, UniProt Q969S8).
T5 sequence (Q969S8 1-669): T3 sequence (Q969S8 1-669)
Description: BRET intracellular target engagement assay, HDAC10.

The next assay concerns the target T6, HDAC2 (Homo sapiens, UniProt Q92769).
T6 construct: purchased BPS Bioscience 50002
The experiment in a line: HDAC-Glo I/II assay, HDAC2. Type of assay: biochemical. Particulars: recombinant human HDAC2, HDAC-Glo; read-out: pIC50 HDAC2 Glo (converted).

Assay [4] deals with T7, HDAC1 (Homo sapiens, UniProt Q13547).
T7 construct: purchased BPS Bioscience 50051
T7 sequence (Q13547 whole entry): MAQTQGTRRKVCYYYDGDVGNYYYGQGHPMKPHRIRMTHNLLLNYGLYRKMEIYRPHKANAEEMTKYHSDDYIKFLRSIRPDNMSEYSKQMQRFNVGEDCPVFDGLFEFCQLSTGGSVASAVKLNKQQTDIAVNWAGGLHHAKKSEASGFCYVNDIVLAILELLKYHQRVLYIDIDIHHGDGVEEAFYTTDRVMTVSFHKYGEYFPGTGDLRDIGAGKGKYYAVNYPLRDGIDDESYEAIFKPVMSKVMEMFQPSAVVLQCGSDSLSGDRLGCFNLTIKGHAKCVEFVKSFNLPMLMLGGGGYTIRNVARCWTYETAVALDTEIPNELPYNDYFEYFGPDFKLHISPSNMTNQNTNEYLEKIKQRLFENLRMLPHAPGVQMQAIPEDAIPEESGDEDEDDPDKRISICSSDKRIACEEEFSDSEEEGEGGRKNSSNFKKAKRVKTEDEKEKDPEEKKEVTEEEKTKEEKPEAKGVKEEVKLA
Description: HDAC-Glo I/II assay, HDAC1. Type of assay: biochemical. Particulars: recombinant human HDAC1, HDAC-Glo; read-out: pIC50 HDAC1 Glo (converted).

The target of another assay is T8, zebrafish HDAC10 (Danio rerio, UniProt F1QCV2).
T8 sequence (F1QCV2 1-675): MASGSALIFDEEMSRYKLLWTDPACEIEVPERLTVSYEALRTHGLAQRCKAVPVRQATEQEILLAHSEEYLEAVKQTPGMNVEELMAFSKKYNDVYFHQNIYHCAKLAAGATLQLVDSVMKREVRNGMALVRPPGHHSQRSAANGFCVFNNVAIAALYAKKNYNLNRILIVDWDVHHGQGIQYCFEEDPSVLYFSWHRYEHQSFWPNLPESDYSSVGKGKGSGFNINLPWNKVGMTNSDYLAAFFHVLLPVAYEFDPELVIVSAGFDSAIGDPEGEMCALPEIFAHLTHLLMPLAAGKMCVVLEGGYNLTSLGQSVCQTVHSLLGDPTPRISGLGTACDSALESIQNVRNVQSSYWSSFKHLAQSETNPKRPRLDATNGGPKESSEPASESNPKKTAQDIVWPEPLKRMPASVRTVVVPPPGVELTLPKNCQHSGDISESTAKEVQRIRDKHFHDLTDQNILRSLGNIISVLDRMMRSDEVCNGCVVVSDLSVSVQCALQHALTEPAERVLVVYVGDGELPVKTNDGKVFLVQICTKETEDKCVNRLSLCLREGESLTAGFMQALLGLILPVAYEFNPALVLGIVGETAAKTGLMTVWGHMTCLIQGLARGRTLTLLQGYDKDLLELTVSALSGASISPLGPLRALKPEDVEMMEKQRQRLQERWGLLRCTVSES
Description: Zebrafish HDAC10 assay (zHDAC10), Ac-spermidine-AMC substrate. Type of assay: biochemical.

Assay [5] addresses T1, HDAC8. Description: HDAC8 (FDL) Fluor de Lys assay. Further details: obtained from C; Romier (academic laboratory, not a vendor). The assay is classed as biochemical.
For assay [6], the target named is T7, HDAC1. Description: HDAC1 (ZMAL) fluorogenic activity assay. Type of assay: biochemical. Particulars: read-out: HDAC1 (ZMAL) percent enzyme inhibition.
Assay [7] has as its target T4, HDAC6. The experiment in a line: HDAC6 (ZMAL) fluorogenic activity assay. Particulars: read-out: HDAC6 (ZMAL) percent enzyme inhibition. Type of assay: biochemical.

T2 sequence (O15379 whole entry): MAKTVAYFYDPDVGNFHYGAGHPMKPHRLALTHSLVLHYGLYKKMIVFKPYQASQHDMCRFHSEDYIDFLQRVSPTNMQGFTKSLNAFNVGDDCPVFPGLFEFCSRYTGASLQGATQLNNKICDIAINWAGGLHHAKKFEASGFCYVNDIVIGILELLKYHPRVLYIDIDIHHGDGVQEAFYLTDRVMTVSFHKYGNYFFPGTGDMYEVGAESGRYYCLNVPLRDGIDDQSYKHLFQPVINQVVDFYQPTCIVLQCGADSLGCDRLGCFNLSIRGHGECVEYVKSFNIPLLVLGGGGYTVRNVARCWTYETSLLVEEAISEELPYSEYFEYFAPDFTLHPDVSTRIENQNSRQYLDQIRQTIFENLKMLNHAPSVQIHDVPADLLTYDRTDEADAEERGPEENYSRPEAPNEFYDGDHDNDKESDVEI
T2 sequence (Q9Y618 395-489 partner limits assumed): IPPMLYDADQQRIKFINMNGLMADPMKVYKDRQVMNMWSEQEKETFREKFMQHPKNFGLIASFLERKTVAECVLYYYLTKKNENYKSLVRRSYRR
T6 sequence (Q92769 whole entry): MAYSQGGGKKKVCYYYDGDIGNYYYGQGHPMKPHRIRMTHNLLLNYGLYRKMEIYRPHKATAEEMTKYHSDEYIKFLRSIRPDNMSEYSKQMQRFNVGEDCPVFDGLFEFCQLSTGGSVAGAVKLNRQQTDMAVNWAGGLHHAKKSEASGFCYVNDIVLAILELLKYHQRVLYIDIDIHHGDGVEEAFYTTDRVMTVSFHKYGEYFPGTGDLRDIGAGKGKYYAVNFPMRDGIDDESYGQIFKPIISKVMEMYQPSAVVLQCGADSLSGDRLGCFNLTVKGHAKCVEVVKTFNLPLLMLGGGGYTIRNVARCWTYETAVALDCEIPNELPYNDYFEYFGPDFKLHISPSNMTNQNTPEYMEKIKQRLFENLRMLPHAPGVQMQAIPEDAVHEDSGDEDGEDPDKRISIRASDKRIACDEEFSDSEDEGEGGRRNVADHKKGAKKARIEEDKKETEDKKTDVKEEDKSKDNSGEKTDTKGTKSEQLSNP

For the compound `CN(CCCC(=O)NO)CCc1nc2ccccc2[nH]1` [DKFZ-773, 4-((2-(Benzimidazol-2-yl)ethyl)(methyl)amino)-N-hydroxybutanamide], the IC50 on HDAC8 [1] is 5.01 µM; on HDAC3/NcoR2 complex it was above 100 µM; at TwinStrep-GST-HDAC10, 0.00631 µM; on HDAC6 [2] it was 1 µM; in assay [3], 0.126 µM; on HDAC2, 25.1 µM. In addition, at HDAC1 [4], the IC50 was 10 µM. In addition, the “HDAC10/6 fold selectivity (BRET)” value in assay [3] (HDAC10 over HDAC6, from BRET) stood at 315 fold.

As to `O=C(NO)C1CCN(CCNCc2ccccc2)CC1` [DH79, 1-(2-(Benzylamino)ethyl)-N-hydroxypiperidine-4-carboxamide], the IC50 against zebrafish HDAC10 was determined as 0.064 ± 0.006 µM; against HDAC8 [5], 2 ± 0.3 µM. Also, the inhibition at 1 µM on HDAC1 [6] is 6%; at HDAC6 [7] it was -15%. Further, the inhibition at 10 µM on HDAC1 [6] amounted to 20%; at HDAC6 [7] it was 0%.

As for `O=C(NO)C1CCN(CCCc2ccccc2)CC1` [DH53, N-Hydroxy-1-(3-phenylpropyl)-piperidine-4-carboxamide], at zebrafish HDAC10 (at 0.1 μM, read-out: zHDAC10 percent enzyme inhibition), the inhibition at 0.1 µM came out at 0%. The inhibition at 1 µM on zebrafish HDAC10 (at 1 μM, read-out: zHDAC10 percent enzyme inhibition) is 19%; at HDAC8 [5] (at 1 μM, read-out: HDAC8 (FDL) percent enzyme inhibition), 20%; on HDAC1 [6], 2%; at HDAC6 [7], -23%. For the same compound, the inhibition at 10 µM at zebrafish HDAC10 (at 10 μM, read-out: zHDAC10 percent enzyme inhibition) is 68%; on HDAC8 [5] (at 10 μM, read-out: HDAC8 (FDL) percent enzyme inhibition) it was 48%; on HDAC1 [6] it was 29%; at HDAC6 [7], -3%.

With `CN(CCCC(=O)NO)CCNC(=O)c1ccc(N)cc1` [DKFZ-752, 4-Amino-N-(2-((4-(hydroxyamino)-4-oxobutyl)(methyl)amino)ethyl)benzamide], the IC50 on HDAC8 [1] was 20 µM; on HDAC3/NcoR2 complex, above 100 µM; at TwinStrep-GST-HDAC10, 0.0158 µM; at HDAC6 [2] it was 3.98 µM; at HDAC2, above 100 µM; at HDAC1 [4] it was 15.8 µM.

For `CN(CCCC(=O)NO)CCNS(=O)(=O)c1ccccc1` [DKFZ-758, N-Hydroxy-4-(methyl(2-(phenylsulfonamido)ethyl)amino)butanamide], the IC50 at HDAC8 [1] was 6.31 µM; at HDAC3/NcoR2 complex, above 100 µM; on TwinStrep-GST-HDAC10 it was 0.0316 µM; on HDAC6 [2], 6.31 µM; at HDAC2, above 100 µM; on HDAC1 [4] it was 25.1 µM.

With `CN(CCCC(=O)NO)CCNC(=O)c1ccc(O)c2ccccc12` [DKFZ-776, 4-Hydroxy-N-(2-((4-(hydroxyamino)-4-oxobutyl)(methyl)amino)ethyl)-1-naphthamide], the IC50 was 2 µM on HDAC8 [1]; above 100 µM at HDAC3/NcoR2 complex; 0.00501 µM at TwinStrep-GST-HDAC10; 0.631 µM on HDAC6 [2]; 15.8 µM at HDAC2; 7.94 µM at HDAC1 [4].

Turning to `CN(CCCC(=O)NO)CCNC(=O)c1ccc(-c2ccccc2)cc1` [DKFZ-746, N-(2-((4-(Hydroxyamino)-4-oxobutyl)(methyl)amino)ethyl)-[1,1′-biphenyl]-4-carboxamide], the IC50 is 5.01 µM at HDAC8 [1]; around 31.6 µM at HDAC3/NcoR2 complex; 0.0251 µM on TwinStrep-GST-HDAC10; 3.16 µM on HDAC6 [2]; around 39.8 µM on HDAC2; 2.51 µM on HDAC1 [4].

On to `CN(CCCC(=O)NO)CCCc1nc2ccccc2[nH]1` [DKFZ-805, 4-((3-(Benzimidazol-2-yl)propyl)(methyl)amino)-N-hydroxybutanamide], for which the IC50 was 10 µM at HDAC8 [1]; above 100 µM on HDAC3/NcoR2 complex; 0.00794 µM on TwinStrep-GST-HDAC10; 12.6 µM on HDAC6 [2]; 50.1 µM on HDAC2; around 39.8 µM at HDAC1 [4].

The record behind these values is US20220151962A1, “NOVEL INHIBITORS OF HISTONE DEACETYLASE 10” (Deutsches Krebsforschungszentrum, priority 2019, published 2022).
